From US20220347196A1, “COMPOSITIONS AND METHODS FOR IMPROVING GASTROINTESTINAL FUNCTION IN SUBJECTS WITH RENAL DISEASE” (priority 2021, published 2022)

Key:
[1] = system: Patients With ESRD On Hemodialysis With Constipation; test: Nutrition, hemoglobin and inflammatory biomarkers measured each month during 12 week HMO treatment; assay type: in vivo, human
Method: Five subjects with ESRD on hemodialysis with constipation were treated with 2′-FL (3.3 grams/day) for 12 weeks. Meanwhile, nutrition, hemoglobin, and inflammatory biomarkers were measured in each of the these patients at each month during the treatment.

[2] = system: subjects with ESRD on hemodialysis with constipation; test: Bowel movement consistency and regularity after 12 week 2′-FL treatment; assay type: in vivo, human; conditions: five subjects, 3.3 grams/day for 12 weeks
Method: Five subjects with ESRD on hemodialysis with constipation were treated with 2′-FL (3.3 grams/day) for 12 weeks.

[3] = Patient 1, month of treatment 0 (baseline), 3.3 grams/day
[4] = Patient 1, month of treatment 1, 3.3 grams/day
[5] = Patient 1, month of treatment 2, 3.3 grams/day
[6] = Patient 1, month of treatment 3, 3.3 grams/day
[7] = Patient 2, month of treatment 0 (baseline), 3.3 grams/day
[8] = Patient 2, month of treatment 1, 3.3 grams/day
[9] = Patient 2, month of treatment 2, 3.3 grams/day
[10] = Patient 2, month of treatment 3, 3.3 grams/day
[11] = Patient 3, month of treatment 0 (baseline), 3.3 grams/day
[12] = Patient 3, month of treatment 1, 3.3 grams/day
[13] = Patient 3, month of treatment 2, 3.3 grams/day
[14] = Patient 3, month of treatment 3, 3.3 grams/day
[15] = Patient 4, month of tx 0 (baseline), 3.3 grams/day
[16] = Patient 4, month of tx 1, 3.3 grams/day
[17] = Patient 4, month of tx 2, 3.3 grams/day
[18] = Patient 4, month of tx 3, 3.3 grams/day
[19] = Patient 5, month of treatment 0 (baseline), 3.3 grams/day
[20] = Patient 5, month of treatment 1, 3.3 grams/day
[21] = Patient 5, month of treatment 2, 3.3 grams/day
[22] = Patient 5, month of treatment 3, 3.3 grams/day
[23] = five subjects, 3.3 grams/day for 12 weeks

2′-fucosyllactose [2′-FL] was tested, and the Albumin [1, 3] was 3.6 g/dL, the Ferritin [1, 3] was 548 ng/mL and the Hg [1, 3] was 10.6 g/dL. It also gave an Albumin [1, 4] of 3.7 g/dL, a CRP [1, 4] of 0.7 mg/L and a Ferritin [1, 4] of 546 ng/mL. For the same substance, the Hg [1, 4] was 10.5 g/dL, the Albumin [1, 5] was 3.8 g/dL and the CRP [1, 5] was 0.5 mg/L. It also gave a Ferritin [1, 5] of 503 ng/mL, a Hg [1, 5] of 11.2 g/dL and an Albumin [1, 6] of 3.5 g/dL. It also gave a CRP [1, 6] of 0.3 mg/L, a Ferritin [1, 6] of 364 ng/mL and a Hg [1, 6] of 10.7 g/dL. For the same substance, the Albumin [1, 7] was 4.2 g/dL, the Ferritin [1, 7] was 1250 ng/mL and the Hg [1, 7] was 11.2 g/dL. It also gave an Albumin [1, 8] of 4.3 g/dL, a CRP [1, 8] of 6.2 mg/L and a Ferritin [1, 8] of 1188 ng/mL. It also gave a Hg [1, 8] of 11.3 g/dL, an Albumin [1, 9] of 4.2 g/dL and a CRP [1, 9] of 4.3 mg/L. For the same substance, the Ferritin [1, 9] was 1000 ng/mL, the Hg [1, 9] was 10.6 g/dL and the Albumin [1, 10] was 4.2 g/dL. For the same substance, the CRP [1, 10] was 2.3 mg/L, the Ferritin [1, 10] was 899 ng/mL and the Hg [1, 10] was 10.2 g/dL. It also gave an Albumin [1, 11] of 3.9 g/dL, a Ferritin [1, 11] of 1243 ng/mL and a Hg [1, 11] of 10.5 g/dL. The Albumin [1, 12] was 4 g/dL, the CRP [1, 12] was 19 mg/L and the Ferritin [1, 12] was 1135 ng/mL. It also gave a Hg [1, 12] of 11.3 g/dL, an Albumin [1, 13] of 3.9 g/dL and a CRP [1, 13] of 1.9 mg/L. For the same substance, the Ferritin [1, 13] was 827 ng/mL, the Hg [1, 13] was 10.9 g/dL and the Albumin [1, 14] was 4 g/dL. The CRP [1, 14] was 1.6 mg/L, the Ferritin [1, 14] was 907 ng/mL and the Hg [1, 14] was 11.2 g/dL. It also gave an Albumin [1, 15] of 3.9 g/dL, a Ferritin [1, 15] of 1487 ng/mL and a Hg [1, 15] of 10.8 g/dL. It also gave an Albumin [1, 16] of 3.9 g/dL, a CRP [1, 16] of 2 mg/L and a Ferritin [1, 16] of 1208 ng/mL. It also gave a Hg [1, 16] of 10.5 g/dL, an Albumin [1, 17] of 3.9 g/dL and a CRP [1, 17] of 1.5 mg/L. The Ferritin [1, 17] was 749 ng/mL, the Hg [1, 17] was 11.3 g/dL and the Albumin [1, 18] was 3.8 g/dL. The CRP [1, 18] was 1.5 mg/L, the Ferritin [1, 18] was 985 ng/mL and the Hg [1, 18] was 11.4 g/dL. The Albumin [1, 19] was 4.1 g/dL, the Ferritin [1, 19] was 580 ng/mL and the Hg [1, 19] was 12.2 g/dL. For the same substance, the Albumin [1, 20] was 4.1 g/dL, the CRP [1, 20] was 27.5 mg/L and the Ferritin [1, 20] was 431 ng/mL. The Hg [1, 20] was 12.6 g/dL, the Albumin [1, 21] was 3.9 g/dL and the CRP [1, 21] was 28 mg/L. For the same substance, the Ferritin [1, 21] was 313 ng/mL, the Hg [1, 21] was 12.2 g/dL and the Albumin [1, 22] was 3.8 g/dL. It also gave a CRP [1, 22] of 12.4 mg/L, a Ferritin [1, 22] of 332 ng/mL and a Hg [1, 22] of 12 g/dL. The “anemia (hemoglobin), average” value [1, 23] was “improvement or stabilization”, the “nutrition (albumin), average” value [1, 23] was “improvement or stabilization” and the “serum inflammatory marker CRP (C-reactive protein), average” value [1, 23] was “significant and persistent reduction”. The “serum inflammatory marker ferritin, average” value [1, 23] was “significant and persistent reduction”, the bowel movement consistency [2] was “from hard stool to soft” and the “bowel movement regularity (on average)” value [2] was “from one bowel movement every other day to one bowel movement every day”.
